Experimental data as given in article PMC3359661, “FK228 Analogues Induce Fetal Hemoglobin in Human Erythroid Progenitors” (Anemia, 2012).

What was measured:
[1] = system: HDAC activity in HeLa cells; assay: HDAC Fluorescent Activity Assay (Fluor de Lys) in HeLa cells; format: cell-based, human; settings: TSA 0.5 to 1000 nM; HeLa cells, Fluor de Lys substrate, fluorescence 440 nm
Procedure: The HDAC Fluorescent Activity Assay (Enzo Life Science, Farmingdale, NY) was used to measure HDAC inhibition in HeLa cells in a 96-well format using Trichostatin A as the positive control per the manufacturer's protocol. This assay is based on the Fluor de Lys (Fluorogenic Histone Deacetylase Lysyl (FDL)) Substrate/Developer. The procedure was as follows: the test compounds FK228, JMA26, and JMA33 were added to HeLa cells along with the FDL substrate to allow intracellular drug activation then fluorescence levels were read on the fluorometer at 440 nm (CytoFluor II, PerSeptive Biosystems, Farmingdale, NY). The drug concentrations tested were based on the amount required for HbF induction in primary cells. Data was reported as the mean ± standard deviation (SD) for at least five replicates.
To ascertain the mechanism of HbF induction by the lead compounds, we performed an in vivo assay to investigate the ability of JMA26 and JMA33 to act as HDAC inhibitors. The HDAC Fluorescent Activity Assay designed to measure HDAC activity in HeLa cells was completed in a 96-well format. The assay is based on the fact that the Fluor de Lys substrate is deacetylated by HDACs to generate a fluorescent readout. TSA (0.5 to 1000 nM) was used to establish the assay in HeLa cells, showing about 80% HDAC inhibition in our system (Figure 4(a)).
Figure 4 HDAC inhibition assay. The HDAC Fluorescent Activity Assay was used to measure HDAC inhibition in HeLa cells (See Section 2). Compounds and FDL substrate were added to HeLa cells to allow drug activation in vivo then fluorescence levels were quantified on the fluorometer at 440 nm. (a) Trichostatin A (TSA) was used as the control. (b) Inhibition studies were conducted for FK228 showing maximal HDAC inhibition at the 300 nM concentration. (c) Similar studies were performed for JMA33 and JMA26. The data are reported as the means ± SEM.

sickle-cell patients = settings: sickle cell patients treated with hydroxyurea; cited from earlier work
From the text: Several classes of pharmacological compounds that reactivate γ-globin gene transcription have been identified. They include cytotoxic agents, DNA methyl transferase, and histone deacetylase (HDAC) inhibitors. Cytotoxic compounds terminate actively cycling progenitors and perturb cellular growth to trigger rapid erythroid regeneration and γ-globin gene activation. S-stage cytotoxic drugs, such as cytosine arabinoside, myleran, vinblastine, and hydroxyurea, induce HbF production in primates and humans. The Multicenter Study of Hydroxyurea established ...

[2] = system: γ-globin gene transcription in KU812 cells; assay: RT-qPCR of γ/β-globin mRNA in wild type KU812 cells; format: cell-based, human; settings: 48 hr, Hem 50 μM, NaB 2 mM, SAHA 2 μM, FK228 1.5 nM, Cys 10 mM, untreated normalized to one, range over the drugs
Procedure: Human KU812 leukemia cells were grown in Iscove's Modified Dulbecco's medium (IMDM) (Invitrogen, Carlsbad, CA) with 10% fetal bovine serum (Atlanta Biologicals, Atlanta, GA), penicillin (100 U/mL), and streptomycin (0.1 mg/mL). The cells were incubated at 37°C with 5% CO2. Cell count and viability were determined using a hemocytometer and 2% Trypan blue exclusion. Inductions were performed with one million cells treated for 48 hr with the following drugs purchased from Sigma (St Louis, MO): 50 μM Hem (hemin), 2 mM NaB (sodium buytrate), 0.5 μM TSA, 10 mM Cys (cysteine), 1.5 nM FK228, and 100 μM HU (hydroxyurea). […] Inc. (Whitehouse Station, NJ).
Total RNA was isolated from samples using RNA Stat-60 (TEL-TEST “B” Inc., Friendswood, TX) and used for RT-qPCR analysis as previously published. […] The globin mRNA levels were calculated as a ratio of GAPDH (γ/GAPDH, β/GAPDH), and the γ/β-globin mRNA ratio was calculated by dividing γ/GAPDH by β/GAPDH. […]
Figure 2 Known HbF inducers activate γ-globin expression in KU812 cells. […] Cells were treated for 48 hr with the different drug inducers and γ-globin and β-globin gene transcription were measured by RT-qPCR (see Section 2). […] Data were calculated as the means ± standard error of the mean (SEM); *P < 0.05 and **P < 0.01. […]

[3] = system: HbF levels in primary erythroid cells; assay: HbF ELISA in primary erythroid cells; format: cell-based, human; settings: for Fold change in HbF levels: relative to untreated = 1, concentrations as in E7; for Fetal hemoglobin quantification, Mean (HbF/total Hb/total protein): treated Day 11, harvested Day 14, conc: Cys 10 mM, Hemin 50 μM, SAHA 2000 nM, FK228 1.5 nM, JMA1 1.5 nM, JMA2 1.0 nM, JMA26 500 nM, JMA33 1000 nM, untreated 0.683
Procedure: (§1) The two-phase liquid culture system was established as previously published by Fibach et al. using buffy coat mononuclear cells, purchased from Carter Blood Care (Fort Worth, TX) in accordance with the guidelines of the Institutional Review Board at the University of Texas at Dallas. During phase 1, cells were grown in IMDM medium with 30% fetal bovine serum and 50 ng/mL each of the granulocyte-monocyte colony-stimulating factor, Interleukin-3, and stem cell factor. Subsequently, phase 2 was initiated on day 7 with the addition of erythropoietin (2 U/mL) and stem cell factor (50 ng/mL). The cells were treated on Day 11 with the different test compounds and harvested on Day 14 (72 hr incubation).
Total hemoglobin was quantified using 20 μL of protein extract from one million KU812 cells mixed with 5 mL of Drabkin's reagent (Sigma); then cyanmethemoglobin was measured at the 540 nm wavelength. HbF levels were quantified using the human Hemoglobin F ELISA Quantitation Kit (Bethyl Laboratory, Montgomery, TX). Briefly, 96-well plates were coated with sheep anti-human HbF antibody (1 mg/mL). After blocking with 1% bovine serum albumin, horse radish peroxidase-conjugated secondary antibody (1 mg/mL) was added. Raw data were analyzed using GraphPad PRISM (GraphPad Software, Inc., La Jolla, CA) and HbF levels were calculated as a ratio of total hemoglobin corrected for total protein (HbF/total Hb/total protein).

[4] = system: γ-globin promoter activity in KU812-γF/βR stable lines; assay: KU812 dual-luciferase reporter stable lines (μLCRβprRluc AγprFluc), γ-globin promoter activity; format: cell-based, human; settings: 48 hr; for Fold change (γ/γ + 2β): untreated normalized to one
From the text: KU812 stable cell lines were created by co-transfecting wild-type KU812 cells with pEGFP-NI (G418 selectable marker) and theμLCRβ prRluc ^A γ prFluc dual-reporter a kind gifts from Dr. George Stamatoyannopoulos (University of Washington). […] Likewise, 1.4 kb of human Aγ-globin promoter was inserted upstream of firefly luciferase to create ^A γ prFluc. The μLCR (locus control region), Pβ prRluc, and ^A γ prFluc fragments were subsequently cloned into the mammalian vector, pRL-null.
After 72 hr, G418 was added at a concentration of […] for 3 days then maintained under selection pressure indefinitely at a concentration of […]. KU812 stable lines were treated with the various drugs at the same concentrations described above. FK228 and analogues were screened at concentrations between 1–1000 nM for 48 hr and cell toxicity was monitored by 2% Trypan blue exclusion. The effect of drug treatments on γ-globin and β-globin promoter activity was monitored by luciferase assay.
Luciferase activity was monitored under the different experimental conditions using the Dual Luciferase Assay Reporter System (Promega, Madison, WI). The activity of firefly luciferase represents γ-globin promoter activity (γF), while the renilla luciferase is the read-out for β-globin promoter activity (βR). The β-globin promoter was strategically cloned between the LCR and γ-globin promoter to increase β expression, while simultaneously increasing the sensitivity of detection of γ-globin gene inducers.
After drug treatments, KU812 stable cells were washed with 1X phosphate buffered saline and lysed in 1X Passive Lysis Buffer for 15 min, then protein extracts were added to the Luciferase Assay Reagent II and firefly luciferase activity quantified in a Turner Designs TD-20/20 luminometer (Sunnyvale, CA). To measure βR activity, Stop & Glo Reagents was added to measure the renilla luciferase activity. Total protein was determined by Bradford assay on a Beckman DU 640 spectrophotometer (Chaska, MN) and luciferase activity was corrected for total protein.
Subsequently, three independent dual-luciferase reporter KU812 stable cell lines were established to analyze the ability FK228 analogues to induce γ-globin promoter activity without an effect on β-globin transcription. […] Since the firefly luciferase gene (γF) has approximately […] luminescence than the renilla gene (βR), the renilla activity was multiplied by two to adjust for the difference in luminescence yielding the γ/γ+2β final measurement. The FK228 analogues were examined at concentrations ranging from 1–1000 nM in the three stable lines. After 48-hour treatments, cells were harvested and protein isolated for luciferase activity using the Dual Luciferase Reporter Assay.

[5] = system: γ-globin transcription in primary erythroid progenitors; assay: RT-qPCR of γ-globin mRNA in primary erythroid progenitors (two-phase liquid culture); format: cell-based, human; settings: Day 11 erythroid progenitors treated 48 hr (Figure 3 legend), untreated normalized to one
Procedure: as §1
Total RNA was isolated from samples using RNA Stat-60 (TEL-TEST “B” Inc., Friendswood, TX) and used for RT-qPCR analysis as previously published. […] The globin mRNA levels were calculated as a ratio of GAPDH (γ/GAPDH, β/GAPDH), and the γ/β-globin mRNA ratio was calculated by dividing γ/GAPDH by β/GAPDH.
Figure 3 JMA33 and JMA26 induce HbF in primary erythroid cells. (a) Day 11 erythroid progenitors were treated for 48 hr with the controls agents and the FK228 analogues shown and then analyzed by RT-qPCR. […] Data were calculated as the means ± SEM. […] The images generated were used to count 500 DAPI positive cells and the %FITC positive cells were calculated accordingly.

[6] = system: HbF-positive primary erythroid progenitors; assay: Anti-HbF FITC immunostaining of primary erythroid progenitors; format: cell-based, human; settings: anti-HbF FITC / DAPI, 500 cells counted; 15.5% HbF-positive at baseline in untreated cells
Procedure: as §1
Primary erythroid progenitor cytospin cell preparations were fixed with 4% paraformaldehyde in phosphate buffered saline for 15 min, washed, and then permeabilized with 0.3% Trition-100 solution for 10 min. Cells were then blocked in a 5% bovine serum albumin solution and immunostaining performed at 4°C overnight with anti-HbF fluorescein isothiocyanate (FITC) conjugated antibody (Bethyl Laboratories Inc., TX). Cell nuclei were stained with mounting medium containing 4′,6-diamidino-2-phenylindole (DAPI; Santa Cruz Biotechnology, CA). Primary cells were photographed with an Olympus BX 51 phase contrast epifluorescent microscope equipped with Hoffman Modulation optics. Phase-contrast images were recorded with a CCD camera (1/100 sec exposure) and fluorescence images were photographed through 485/520 nm emission filter. The percent of HbF positive cells was calculated by dividing the number of FITC positive cells by total cells (DAPI positive).
Figure 3 JMA33 and JMA26 induce HbF in primary erythroid cells. (a) Day 11 erythroid progenitors were treated for 48 hr with the controls agents and the FK228 analogues shown and then analyzed by RT-qPCR. Untreated cells (UT) were used as a control and normalized to one. Data were calculated as the means ± SEM. […] The images generated were used to count 500 DAPI positive cells and the %FITC positive cells were calculated accordingly.

[7] = Line 1, firefly (γ) / renilla (β) luciferase corrected for total protein, mean, conc: Cys 10 mM, Hemin 50 μM, SAHA 2000 nM, FK228 1.5 nM, 1127Ox 1000 nM, JMA1 1.5 nM, JMA2 1.0 nM, JMA12 1000 nM, JMA26 500 nM, JMA33 1000 nM, JMA112 100 nM, untreated 0.0402
[8] = Line 1, concentrations as in E1
[9] = Line 2, concentrations as in E1, untreated 0.1573
[10] = Line 2, concentrations as in E1
[11] = Line 3, concentrations as in E1, untreated 0.0721
[12] = Line 3, concentrations as in E1

| Compound | HDAC inhibition [1] | non-response rate (sickle-cell patients) | increase in the γ/β-globin mRNA levels [2] | Fold change in HbF levels [3] | Fetal hemoglobin quantification, Mean (HbF/total Hb/total protein) [3] | γ/γ + 2β Mean [4, 7] | Fold change (γ/γ + 2β) [4, 8] | γ/γ + 2β Mean [4, 9] | Fold change (γ/γ + 2β) [4, 10] | γ/γ + 2β Mean [4, 11] | Fold change (γ/γ + 2β) [4, 12] | induction of γ-globin transcription at the mRNA level [5] | increase in HbF-positive cells [6] |
| --- | --- | --- | --- | --- | --- | --- | --- | --- | --- | --- | --- | --- | --- |
| CC(/C=C/C(=O)NO)=C\[C@@H](C)C(=O)c1ccc(N(C)C)cc1 [TSA, Trichostatin A] | about 80% | – | – | – | – | – | – | – | – | – | – | – | – |
| NC(=O)NO [hydroxyurea] | – | 30% | – | – | – | – | – | – | – | – | – | – | – |
| N[C@@H](CS)C(=O)O [Cys, cysteine] | – | – | not induced | 1.079 fold | 0.737 | 0.0388 | 0.950 | 0.1200 | 0.764 | 0.0860 | 1.194 | – | – |
| O=C(CCCCCCC(=O)Nc1ccccc1)NO [SAHA, suberoylanilide hydroxamic acid] | – | – | – | 1.602 fold | 1.094 | 0.2157 | 5.400 | 0.6500 | 4.140 | 0.2520 | 3.500 | ≤ 3.2 fold | 3.2 fold |
| hemin | – | – | – | 2.218 fold | 1.515 | 0.1732 | 4.325 | 0.6593 | 4.261 | 0.2508 | 3.486 | – | 3.0 fold |
